# Legend:
# [1] = system: antibodies in sera from SARS patients (sera 1a, 1b, 2, 6, 37, 62, London, SARS-yellow, SARS-green); assay type: binding, human; design: Binding of serum 6 to linear peptides of protein X1 of SARS-CoV Urbani / Binding of serum 37 to linear peptides of protein X1 of SARS-CoV Urbani / Binding of serum 6 to looped/cyclic peptide (PEPSCAN-ELISA) / Binding of serum 37 to looped/cyclic peptide (PEPSCAN-ELISA) / Binding of serum 37 to looped/cyclic peptides of protein X1 of SARS-CoV Urbani / Binding of serum 6 to linear peptides of protein X2 / Binding of serum 37 to linear peptides of protein X2 / Binding of serum 37 to looped/cyclic peptides of protein X2 of SARS-CoV Urbani / Binding of serum 6 to linear peptides of protein M of SARS-CoV Urbani / Binding of serum 37 to linear peptides of protein M of SARS-CoV Urbani / Binding of serum 6 to looped/cyclic peptides of protein M of SARS-CoV Urbani / Binding of serum 37 to looped/cyclic peptides of protein M of SARS-CoV Urbani / Binding of serum 6 to linear peptides of protein X3 of SARS-CoV Urbani / Binding of serum 37 to linear peptides of protein X3 of SARS-CoV Urbani / Binding of serum 37 to looped/cyclic peptides of protein X3 of SARS-CoV Urbani / Binding of serum 6 to linear peptides of protein X4 of SARS-CoV Urbani / Binding of serum 37 to linear peptides of protein X4 of SARS-CoV Urbani / Binding of serum 37 to looped/cyclic peptides of protein X4 of SARS-CoV Urbani / Binding of serum 6 to linear peptides of protein X5 of SARS-CoV Urbani / Binding of serum 37 to linear peptides of protein X5 of SARS-CoV Urbani / Binding of serum 37 to looped/cyclic peptides of protein X5 of SARS-CoV Urbani / Binding of serum 6 to linear peptides of protein N of SARS-CoV Urbani / Binding of serum 37 to linear peptides of protein N of SARS-CoV Urbani / Binding of serum 6 to linear peptide (PEPSCAN-ELISA) / Binding of serum 1a to looped/cyclic peptides of protein N of SARS-CoV Urbani / Binding of serum 1b to looped/cyclic peptides of protein N of SARS-CoV Urbani / Binding of serum 2 to looped/cyclic peptides of protein N of SARS-CoV Urbani / Binding of serum 6 to looped/cyclic peptides of protein N of SARS-CoV Urbani / Binding of serum 37 to looped/cyclic peptides of protein N of SARS-CoV Urbani / Binding of serum 62 to looped/cyclic peptides of protein N of SARS-CoV Urbani / Binding of serum London to looped/cyclic peptides of protein N of SARS-CoV Urbani / Binding of serum SARS-green to looped/cyclic peptides of protein N of SARS-CoV Urbani: unit not given here
# [2] = system: control sera (pooled serum of ten healthy LUMC hospital workers; commercial negative donor pooled serum from the Dutch bloodbank); assay type: binding, human; design: Binding of Control serum LUMC to linear peptides / Binding of Control serum Blood-bank to linear peptides / Binding of Control serum LUMC to looped peptides / Binding of Control Serum Blood-Bank to Looped peptides / Binding of Control serum LUMC to linear peptides of the protein M of SARS-CoV Urbani / Binding of Control serum Blood-bank to linear peptides of the protein M of SARS-CoV Urbani / Binding of Control serum LUMC to looped peptides of the protein M of SARS-CoV Urbani / Binding of Control Serum Blood-Bank to Looped peptides of the protein M of SARS-CoV Urbani: unit not given here
# [3] = system: rabbit serum obtained by immunizing a rabbit with the SARS-CoV strain Frankfurt 1; assay type: binding; design: Binding of a rabbit serum to linear peptides / Binding of a rabbit serum to looped peptides / Rabbit serum linear peptides / Rabbit serum looped peptides / Binding of a rabbit serum to linear peptides of protein N of SARS-CoV Urbani (Rabbit serum linear peptides) / Binding of a rabbit serum to looped/cyclic peptides of protein N of SARS-CoV Urbani (Rabbit serum looped peptides): unit not given here
sequence,measurement,setting,value
FGWLVIGVAFLAVFQ,Binding of serum 1a to linear peptides of protein X1 of SARS-CoV Urbani,[1],0.7
same,Binding of serum 1a to looped/cyclic peptide (PEPSCAN-ELISA),[1],0.7
same,Binding of serum 1b to linear peptides of protein X1 of SARS-CoV Urbani,[1],0.5
same,Binding of serum 1b to looped/cyclic peptide (PEPSCAN-ELISA),[1],0.8
same,Binding of serum 2 to linear peptides of protein X1 of SARS-CoV Urbani,[1],0.5
same,Binding of serum 2 to looped/cyclic peptide (PEPSCAN-ELISA),[1],0.7
same,Binding of serum 6 to linear peptides of protein X1 of SARS-CoV Urbani,[1],0.4
same,Binding of serum 6 to looped/cyclic peptide (PEPSCAN-ELISA),[1],0.5
same,Binding of serum 37 to linear peptides of protein X1 of SARS-CoV Urbani,[1],0.6
same,Binding of serum 37 to looped/cyclic peptide (PEPSCAN-ELISA),[1],0.6
same,Binding of serum 62 to linear peptides of protein X1 of SARS-CoV Urbani,[1],0.6
same,Binding of serum 62 to looped/cyclic peptide (PEPSCAN-ELISA),[1],0.7
same,Binding of serum London to linear peptides of protein X1 of SARS-CoV Urbani,[1],0.3
same,Binding of serum London to looped/cyclic peptide (PEPSCAN-ELISA),[1],0.3
same,Binding of serum SARS-green to linear peptides of protein X1 of SARS-CoV Urbani,[1],0.1
same,Binding of serum SARS-green to looped/cyclic peptide (PEPSCAN-ELISA),[1],0.4
same,Binding of serum SARS-yellow to linear peptides of protein X1 of SARS-CoV Urbani,[1],0.5
same,Binding of serum SARS-yellow to looped/cyclic peptide (PEPSCAN-ELISA),[1],0.6
same,Binding of Control Serum Blood-Bank to Looped peptides,[2],0.6
same,Binding of Control serum Blood-bank to linear peptides,[2],0.5
same,Binding of Control serum LUMC to linear peptides,[2],0.5
same,Binding of Control serum LUMC to looped peptides,[2],0.7
same,Binding of a rabbit serum to linear peptides,[3],1.2
same,Binding of a rabbit serum to looped peptides,[3],0.5
FHLVDFQVTIAEILI,Binding of serum 1a to linear peptides of protein X3 of SARS-CoV Urbani,[1],0.8
same,Binding of serum 1a to looped/cyclic peptides of protein X3 of SARS-CoV Urbani,[1],0.8
same,Binding of serum 1b to linear peptides of protein X3 of SARS-CoV Urbani,[1],0.6
same,Binding of serum 1b to looped/cyclic peptides of protein X3 of SARS-CoV Urbani,[1],0.4
same,Binding of serum 2 to linear peptides of protein X3 of SARS-CoV Urbani,[1],0.7
same,Binding of serum 2 to looped/cyclic peptides of protein X3 of SARS-CoV Urbani,[1],0.8
same,Binding of serum 6 to linear peptides of protein X3 of SARS-CoV Urbani,[1],0.4
same,Binding of serum 6 to looped/cyclic peptides of protein X3 of SARS-CoV Urbani,[1],0.5
same,Binding of serum 37 to linear peptides of protein X3 of SARS-CoV Urbani,[1],0.7
same,Binding of serum 37 to looped/cyclic peptides of protein X3 of SARS-CoV Urbani,[1],0.7
same,Binding of serum 62 to linear peptides of protein X3 of SARS-CoV Urbani,[1],0.6
same,Binding of serum 62 to looped/cyclic peptides of protein X3 of SARS-CoV Urbani,[1],0.7
same,Binding of serum London to linear peptides of protein X3 of SARS-CoV Urbani,[1],0.6
same,Binding of serum London to looped/cyclic peptides of protein X3 of SARS-CoV Urbani,[1],0.2
same,Binding of serum SARS-green to linear peptides of protein X3 of SARS-CoV Urbani,[1],0.5
same,Binding of serum SARS-green to looped/cyclic peptides of protein X3 of SARS-CoV Urbani,[1],0.3
same,Binding of serum SARS-yellow to linear peptides of protein X3 of SARS-CoV Urbani,[1],0.9
same,Binding of serum SARS-yellow to looped/cyclic peptides of protein X3 of SARS-CoV Urbani,[1],0.8
same,Binding of Control Serum Blood-Bank to Looped peptides of the protein X3 of SARS-CoV Urbani,[2],0.7
same,Binding of Control serum Blood-bank to linear peptides of the protein X3 of SARS-CoV Urbani,[2],0.8
same,Binding of Control serum LUMC to linear peptides of the protein X3 of SARS-CoV Urbani,[2],0.6
same,Binding of Control serum LUMC to looped peptides of the protein X3 of SARS-CoV Urbani,[2],0.8
same,Rabbit serum linear peptides,[3],0.3
same,Rabbit serum looped peptides,[3],0.5
FHRWHTMVQTCTPNV,Binding of serum 1a to linear peptides of protein X5 of SARS-CoV Urbani,[1],0.8
same,Binding of serum 1a to looped/cyclic peptides of protein X5 of SARS-CoV Urbani,[1],0.7
same,Binding of serum 1b to linear peptides of protein X5 of SARS-CoV Urbani,[1],0.7
same,Binding of serum 1b to looped/cyclic peptides of protein X5 of SARS-CoV Urbani,[1],0.6
same,Binding of serum 2 to linear peptides of protein X5 of SARS-CoV Urbani,[1],0.9
same,Binding of serum 2 to looped/cyclic peptides of protein X5 of SARS-CoV Urbani,[1],0.6
same,Binding of serum 6 to linear peptides of protein X5 of SARS-CoV Urbani,[1],0.5
same,Binding of serum 6 to looped/cyclic peptides of protein X5 of SARS-CoV Urbani,[1],0.3
same,Binding of serum 37 to linear peptides of protein X5 of SARS-CoV Urbani,[1],0.7
same,Binding of serum 37 to looped/cyclic peptides of protein X5 of SARS-CoV Urbani,[1],0.5
same,Binding of serum 62 to linear peptides of protein X5 of SARS-CoV Urbani,[1],0.7
same,Binding of serum 62 to looped/cyclic peptides of protein X5 of SARS-CoV Urbani,[1],0.4
same,Binding of serum London to linear peptides of protein X5 of SARS-CoV Urbani,[1],0.7
same,Binding of serum London to looped/cyclic peptides of protein X5 of SARS-CoV Urbani,[1],0.2
same,Binding of serum SARS-green to linear peptides of protein X5 of SARS-CoV Urbani,[1],0.5
same,Binding of serum SARS-green to looped/cyclic peptides of protein X5 of SARS-CoV Urbani,[1],0.5
same,Binding of serum SARS-yellow to linear peptides of protein X5 of SARS-CoV Urbani,[1],0.4
same,Binding of serum SARS-yellow to looped/cyclic peptides of protein X5 of SARS-CoV Urbani,[1],0.4
same,Binding of Control Serum Blood-Bank to Looped peptides,[2],0.4
same,Binding of Control serum Blood-bank to linear peptides,[2],0.7
same,Binding of Control serum LUMC to linear peptides,[2],0.5
same,Binding of Control serum LUMC to looped peptides,[2],0.5
same,Rabbit serum linear peptides,[3],0.8
same,Rabbit serum looped peptides,[3],0.4
FIRQEEVQQELYSPL,Binding of serum 1a to linear peptides of protein X4 of SARS-CoV Urbani,[1],0.8
same,Binding of serum 1b to linear peptides of protein X4 of SARS-CoV Urbani,[1],0.6
same,Binding of serum 2 to linear peptides of protein X4 of SARS-CoV Urbani,[1],0.5
same,Binding of serum 6 to linear peptides of protein X4 of SARS-CoV Urbani,[1],0.5
same,Binding of serum 37 to linear peptides of protein X4 of SARS-CoV Urbani,[1],0.8
same,Binding of serum 62 to linear peptides of protein X4 of SARS-CoV Urbani,[1],0.7
same,Binding of serum London to linear peptides of protein X4 of SARS-CoV Urbani,[1],0.7
same,Binding of serum SARS-green to linear peptides of protein X4 of SARS-CoV Urbani,[1],0.5
same,Binding of serum SARS-yellow to linear peptides of protein X4 of SARS-CoV Urbani,[1],0.7
same,"Recognition of the peptide by sera of SARS-CoV infected individuals, and form (linear, looped/cyclic) in which it is recognized",[1],recognized in looped/cyclic form
same,Binding of Control Serum Blood-Bank to Looped peptides,[2],0.9
same,Binding of Control serum Blood-bank to linear peptides,[2],0.7
same,Binding of Control serum LUMC to linear peptides,[2],0.7
same,Binding of Control serum LUMC to looped peptides,[2],0.9
same,Rabbit serum linear peptides,[3],0.5
same,Rabbit serum looped peptides,[3],0.5
